Assay results from the NIST ThermoML archive (doi:10.1016/j.fluid.2013.09.051).

Assay: xn = mol fraction of the nth substance listed
Details: Liquid, Time-dependent Raman spectra, x1 = 0

C [methane] + O
binary diffusion coefficient [m2/s]
Details | 273 K | 298 K | 313 K | 353 K | 393 K | 433 K | 473 K
5000 kPa | – | 1.61e-09 | – | 4.85e-09 | 8.59e-09 | – | –
10000 kPa | – | 1.63e-09 | – | 5e-09 | 8.7e-09 | – | –
20000 kPa | 7.02e-10 | 1.64e-09 | 2.39e-09 | 4.98e-09 | 8.68e-09 | 1.25e-08 | 1.71e-08
30000 kPa | – | 1.6e-09 | – | 4.79e-09 | 8.45e-09 | – | –
40000 kPa | – | 1.62e-09 | – | 4.8e-09 | 8.08e-09 | – | –
